“Also recorded” adds a separate entry of the source.
Experiments:
[1] = Animal body weight in psoriasis model, Example 2 (external application); format: in vivo, BALB/c mice; settings: 70 mg external once a day for 7 days
Protocol: After adapting to the environment, female BALB/c mice were randomly divided into groups. Except for the normal control group, the rest received external treatment with imiquimod ointment (5%) to induce the establishment of a psoriasis model. Specifically, the mice were shaved off the same area (2×3 cm) of back hair and applied with 62.5 mg ointment daily for seven consecutive days. The animals received different treatments, weighed daily, received 70 mg smear treatment once, and recorded with disease progression score. The disease progression score is evaluated on a scale of 0-4 based on three indicators, rash, peeling, and thickening (0: no symptoms; 1: mild symptoms; 2: moderate symptoms; 3: significant symptoms; 4: very significant symptoms). At the end of the experiment, the animals were sacrificed, and pathological section analysis was performed on the skin samples of the back lesions.

[2] = Animal body weight in psoriasis model, Example 1; format: in vivo, BALB/c mice; settings: for Statistical significance analysis of body weight: vs vehicle control group, t-test, DEX cream 70 mg external
Protocol: (§1) Female BALB/c mice (purchased from Shanghai SLACK Laboratory Animal Co., Ltd, administered at 6 weeks of age) were randomly divided into groups after adapting to the environment. Except for the normal control group, the rest of the animals received imiquimod ointment (5%) externally to induce the establishment of a psoriasis model. Specifically, the mice were shaved off same area of the back hair and applied with 62.5 mg of imiquimod ointment daily for seven consecutive days. Animals received different treatment programs, weighed daily, orally or externally applied with drugs once, and recorded with disease progression score.
(§2) Both the vehicle control group and the Nib1 treatment group received oral gavage of the same volume of drugs, formulated with 30% PEG300, and the Nib1 group was given a dose of 10 mg/kg. Dexamethasone ointment was used as a positive treatment drug and received 70 mg smear treatment once a day. The disease progression score is evaluated on a scale of 0-4 based on three indicators, rash, peeling, and thickening (0: no symptoms; 1: mild symptoms; 2: moderate symptoms; 3: significant symptoms; 4: very significant symptoms). At the end of the experiment, the animals were sacrificed, and pathological section analysis was performed on the skin samples of the back lesions.

psoriasis model [3] = assay: Clinical scoring (rash, peeling, thickening) in imiquimod-induced psoriasis model, Example 1; format: in vivo, BALB/c mice; settings: for statistical significance analysis of rash scores / statistical significance analysis of skin thickening scores / statistical significance analysis of total clinical scores / statistical significance analysis of peeling scores: vs vehicle control group, t-test, Nib1 10 mg/kg oral, DEX cream 70 mg external
Protocol: as §1, §2
The clinical scoring of three indicators including skin rash, peeling and thickening were recorded and shown as statistical average value and ±standard error by day.

[4] = J Neurol Neurosurg Psychiatry 1986;49:791-795; cited from earlier work
psoriasis model [5] = assay: Pathological section analysis and scoring of back lesion skin, Example 1; format: in vivo, BALB/c mice; settings: Nib1 10 mg/kg oral
Protocol: as §2
The pathological sections of animal skin were stained with eosin. Three samples were selected for each group.

[6] = Nib1 10 mg/kg oral once a day, vs model group

## C[C@@H]1C[C@H]2[C@@H]3CCC4=CC(=O)C=C[C@]4(C)[C@@]3(F)[C@@H](O)C[C@]2(C)[C@@]1(O)C(=O)CO [DEX, Dexamethasone]
[1]
  weight loss: more than 25%
[2]; Example 1, 7 days, Nib1 10 mg/kg oral, dexamethasone ointment 70 mg topical, once a day
  body weights of the animals: significantly reduced
[2]; day 1, Nib1 10 mg/kg oral
  Statistical significance analysis of body weight: * (* p < 0.05)
[2]; day 4, Nib1 10 mg/kg oral
  Statistical significance analysis of body weight: * (* p < 0.05)
[2]; day 5, Nib1 10 mg/kg oral
  Statistical significance analysis of body weight: ** (** p < 0.01)
[2]; day 6, Nib1 10 mg/kg oral
  Statistical significance analysis of body weight: **** (**** p < 0.0001)
[2]; day 7, Nib1 10 mg/kg oral
  Statistical significance analysis of body weight: **** (**** p < 0.0001)
Psoriasis model [3]; day 1
  statistical significance analysis of rash scores: ** (** p < 0.01)
  statistical significance analysis of skin thickening scores: **** (**** p < 0.0001)
  statistical significance analysis of total clinical scores: **** (**** p < 0.0001)
Psoriasis model [3]; day 2
  statistical significance analysis of rash scores: **** (**** p < 0.0001)
  statistical significance analysis of skin thickening scores: **** (**** p < 0.0001)
  statistical significance analysis of total clinical scores: **** (**** p < 0.0001)
Psoriasis model [3]; day 3
  statistical significance analysis of peeling scores: **** (**** p < 0.0001)
  statistical significance analysis of rash scores: **** (**** p < 0.0001)
  statistical significance analysis of skin thickening scores: **** (**** p < 0.0001)
  statistical significance analysis of total clinical scores: **** (**** p < 0.0001)
Psoriasis model [3]; day 4
  statistical significance analysis of peeling scores: **** (**** p < 0.0001)
  statistical significance analysis of rash scores: **** (**** p < 0.0001)
  statistical significance analysis of skin thickening scores: **** (**** p < 0.0001)
  statistical significance analysis of total clinical scores: **** (**** p < 0.0001)
Psoriasis model [3]; day 5
  statistical significance analysis of peeling scores: **** (**** p < 0.0001)
  statistical significance analysis of rash scores: **** (**** p < 0.0001)
  statistical significance analysis of skin thickening scores: **** (**** p < 0.0001)
  statistical significance analysis of total clinical scores: **** (**** p < 0.0001)
Psoriasis model [3]; day 6
  statistical significance analysis of peeling scores: **** (**** p < 0.0001)
  statistical significance analysis of rash scores: **** (**** p < 0.0001)
  statistical significance analysis of skin thickening scores: **** (**** p < 0.0001)
  statistical significance analysis of total clinical scores: **** (**** p < 0.0001)
Psoriasis model [3]; day 7
  statistical significance analysis of peeling scores: *** (*** p < 0.001)
  statistical significance analysis of rash scores: **** (**** p < 0.0001)
  statistical significance analysis of skin thickening scores: **** (**** p < 0.0001)
  statistical significance analysis of total clinical scores: **** (**** p < 0.0001)

## O=c1[nH]c2ccccc2n1C1CCN(CCCC(c2ccc(F)cc2)c2ccc(F)cc2)CC1 [Nib1, Pimozide]
[4]
  systemic risks on long-term use: has not shown systemic risks
Psoriasis model [5]; stained skin sections, 100x
  pathological section findings (epidermal hyperplasia, immune cell infiltration): improve epidermal hyperplasia and reduce immune cell infiltration
Psoriasis model [5]; scoring system of Table 2, p<0.01 vs vehicle control, one-way ANOVA
  remission effect by pathological section score: 32.5%
[2]; mouse, in vivo, po, 10 mg/kg
  toxic and side effect (judged from body weight): significantly less than that of dexamethasone
Psoriasis model [3]; Nib1 10 mg/kg oral once a day for 7 days, compared with the disease model group
  remission by area under the clinical total score curve (AUC): 32.2%
Psoriasis model [3]; Nib1 10 mg/kg oral once a day, vs disease model group, 10 mg/kg
  total score of the three clinical indicators: significantly lower clinical symptoms than the disease model group; also recorded: significantly reduce the clinical symptoms of psoriasis
Psoriasis model [3]; [6]
  peeling clinical score: significantly reduce the peeling phenomenon
  skin thickening clinical score: significantly reduced on the 4th, 5th, and 6th days
Psoriasis model [3]; Nib1 10 mg/kg oral once a day, vs model group, significantly different in the first three days
  rash clinical score: slightly reduced rash
Psoriasis model [3]; day 1
  statistical significance analysis of rash scores: **** (**** p < 0.0001)
  statistical significance analysis of skin thickening scores: ** (** p < 0.01)
  statistical significance analysis of total clinical scores: **** (**** p < 0.0001)
Psoriasis model [3]; day 2
  statistical significance analysis of rash scores: * (* p < 0.05)
  statistical significance analysis of total clinical scores: ** (** p < 0.01)
Psoriasis model [3]; day 3
  statistical significance analysis of peeling scores: *** (*** p < 0.001)
  statistical significance analysis of rash scores: ** (** p < 0.01)
  statistical significance analysis of skin thickening scores: * (* p < 0.05)
  statistical significance analysis of total clinical scores: **** (**** p < 0.0001)
Psoriasis model [3]; day 4
  statistical significance analysis of peeling scores: *** (*** p < 0.001)
  statistical significance analysis of skin thickening scores: *** (*** p < 0.001)
  statistical significance analysis of total clinical scores: **** (**** p < 0.0001)
Psoriasis model [3]; day 5
  statistical significance analysis of peeling scores: **** (**** p < 0.0001)
  statistical significance analysis of skin thickening scores: *** (*** p < 0.001)
  statistical significance analysis of total clinical scores: *** (*** p < 0.001)
Psoriasis model [3]; day 6
  statistical significance analysis of peeling scores: ** (** p < 0.01)
  statistical significance analysis of skin thickening scores: ** (** p < 0.01)
  statistical significance analysis of total clinical scores: ** (** p < 0.01)
